From paper PMC11879792 (Frontiers in Pharmacology, 2025)

Tests used:
[1] = parameters: method as in Diasio and Harris, 1989; details: parenteral administration of 5-FU; approximately; ref Diasio and Harris, 1989; cited from earlier work
[2] = Single-dose, two-cycle crossover PK/bioequivalence trial of S-1 capsules, fasting; assay type: in vivo, Chinese cancer patients; details: human, plasma, oral, 100 mg; fasting conditions
Description: This study, a multicenter, randomized, open-label, single-dose, two-cycle crossover investigation, was distinctly divided into fasting and fed trials. Each subject received either the test or reference formulation in a separate cycle. Each cycle consisted of a 4-day inpatient phase, followed by a 7-day washout period between cycles to ensure that any residual effects from the previous formulation had fully dissipated before the initiation of the next cycle. To avoid the residual effects of fasting or feeding that could influence the results, the fasting and fed trials each enrolled 60 subjects. Subjects were randomly allocated to one of the two treatment sequences, namely, test-reference or reference-test, in a 1:1 ratio. All eligible subjects were admitted to the clinical ward 1 day prior to drug administration, adhering to a minimum fasting period of 10 h before drug intake. In the fasting trial, subjects were required to fast. Subsequently, they ingested a single dose comprising two capsules (50 mg each) of either the test or reference formulation, accompanied by 240 mL of warm water. […]
OXO was determined in blood, which was performed under the following conditions: the aqueous solution containing 5 mM ammonium acetate (mobile phase A) and acetonitrile (mobile phase B). […]

Row | SMILES | half-life [1] | Tmax [2]
1 | O=c1[nH]cc(F)c(=O)[nH]1 [5-FU, 5-fluorouracil] | 8 to 20 min | –
2 | Oc1cc(O)c(Cl)cn1 [CDHP, gimeracil] | – | ~1 h
